How the values were obtained:
PPARγ = experiment: Expression of PPARγ in HEK293 cells treated with LPS and dipyridamole (Western blot of nuclear proteins); format: cell-based, human
Protocol: The cell line used in the assay was human embryonic kidney cells, HEK293. The cells were collected at 0 h, 3 h and 12 h after treatment. The collected cells were washed with 150 μL Buffer A (10 mM Hepes pH=7.9, 1.5 mM MgCl2, 10 mM KCl, 1.0 mM DTT, 0.1% Triton-X 100), and centrifuged at 3000 g for 10 minutes at 4° C. Supernatant containing cytosolic proteins was collected, and the pellets were re-suspended with 50 μL Buffer B (20 mM Hepes pH=7.9, 1.5 mM MgCl2, 0.42M NaCl, 1.0 mM DTT, 1.0M PMSF, 0.2 mM EDTA) and incubated on ice for 30 minutes followed by centrifuging at 12000 g for 10 minutes at 4° C. Supernatant containing nucleic proteins was then collected, and the expression of P65 protein, which is indicative of the activation of PPARγ, was analyzed using Western blotting. The method is as follows: Protein concentration was measured using Bradford assay. 6× sample buffer (0.8 mM Tris-HCl, 10 mM EDTA, 10% SDS, 60% glycerol, 0.6 M β-mercaptoethano, 0.06% bromophenol blue, pH 6.8) was added into 50 μg of nuclear proteins and an equal volume of lysis buffer was added into the samples. After being heated at 95° C. for 10 minutes to denature the proteins, the samples were immediately cooled on ice. […] Photos of the images were taken using automated chemiluminescence and fluorescence imaging system (UVP Biospectrum). […]

[1] = tested on: mice with LPS-induced sepsis; experiment: Survival rate analysis in mice with LPS-induced sepsis; format: in vivo; settings: high dose
Protocol: Male C57Bl/6J mice, 8-12 weeks of age, were used in this study. They were reared in an air-conditioned environment with 6 am to 18 pm light cycle and fed standard rodent chow ad libitum. […] First, mice were injected intraperitoneally with LPS (16 mg/kg) and followed for 72 hours to observe the survival rate.

[2] = Non-invasive blood pressure measurement in mice after intravenous administration; settings: high dose

Structure (SMILES): OCCN(CCO)c1nc(N2CCCCC2)c2nc(N(CCO)CCO)nc(N3CCCCC3)c2n1 [dipyridamole]
- PPARγ expression and nuclear translocation (PPARγ): promote PPARγ expression and nuclear translocation
- effect on physiological conditions and survival rate [1]: influences physiological conditions and survival rate
- effect on blood pressure [2]: leads to changes in blood pressure

From patent publication US12178817B2, “Compounds for enhancing PPARγ expression and nuclear translocation and therapeutic use thereof” (REALINN LIFE SCIENCE LIMITED, priority 2015, dated 2024)
